# Assay results reported in patent publication US20060247231A1, “Amide and ester matrix metalloproteinase inhibitors” (Warner-Lambert Company LLC, priority 2003, published 2006).
# Key:
# Type in all cases: biochemical
# [1] = target: T1, MMP-1FL (full length interstitial collagenase) (Homo sapiens, UniProt P03956); assay: MMP-1 full-length inhibition (Biological Methods 1, 2, or 5)
# T1 sequence (P03956 100-469): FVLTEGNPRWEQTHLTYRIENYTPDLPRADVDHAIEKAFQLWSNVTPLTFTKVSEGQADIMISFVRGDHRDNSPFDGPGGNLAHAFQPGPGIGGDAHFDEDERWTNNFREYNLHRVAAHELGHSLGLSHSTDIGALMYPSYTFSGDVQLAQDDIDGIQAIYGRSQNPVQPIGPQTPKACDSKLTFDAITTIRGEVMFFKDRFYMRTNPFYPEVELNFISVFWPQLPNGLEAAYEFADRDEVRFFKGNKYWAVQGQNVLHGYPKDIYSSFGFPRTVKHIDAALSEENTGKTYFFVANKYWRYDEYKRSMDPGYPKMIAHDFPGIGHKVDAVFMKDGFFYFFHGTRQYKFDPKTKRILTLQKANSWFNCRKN
# Method: (§1) Thiopeptolide substrates show virtually no decomposition or hydrolysis at or below neutral pH in the absence of a matrix metalloproteinase enzyme. A typical thiopeptolide substrate commonly utilized for assays is Ac-Pro-Leu-Gly-thioester-Leu-Leu-Gly-OEt. A 100 μL assay mixture will contain a suitable amount of the MMP enzyme such as an amount described in Ye Qi-Zhuang, et al., 1996, supra, 50 mM of N-2-hydroxyethylpiperazine-N′-2-ethanesulfonic acid buffer (“HEPES,” pH 7.0), 10 mM CaCl2, 100 μM thiopeptolide substrate, and 1 mM 5,5′-dithio-bis-(2-nitro-benzoic acid) (DTNB). The thiopeptolide substrate concentration may be varied, for example from 10 to 800 μM to obtain Km and Kcat values. The change in absorbance at 405 nm is monitored on a Thermo Max microplate reader (molecular Devices, Menlo Park, Calif.) at room temperature (22° C.). The calculation of the amount of hydrolysis of the thiopeptolide substrate is based on E412=13600 M^−1 cm^−1 for the DTNB-derived product 3-carboxy-4-nitrothiophenoxide. […]
# (§2) Some representative compounds of Formula I have been evaluated according to Biological Method 1 for their ability to inhibit MMP-13 and other MMP enzymes, including MMP-1, MMP-2, MMP-3, MMP-7, MMP-8, MMP-9, MMP-12, MMP14, and MMP-17. Inhibitor activity versus other MMPs with the compounds may be determined using, for example, MMP-1FL, which refers to full length interstitial collagenase; MMP-2FL, which refers to full length Gelatinase A; MMP-3CD, which refers to the catalytic domain of stromelysin; MMP-7FL, which refers to full length matrilysin; MMP-9FL, which refers to full length Gelatinase B; MMP-13CD, which refers to the catalytic domain of collagenase 3; and MMP-14CD, which refers to the catalytic domain of MMP-14. […]
# (§3) Shown below in Table 1 are the inhibition of MMP-13 catalytic domain, expressed as IC50's, for the compounds of Compound Examples A1 to A8, B1 to B4, and C1 in the column labelled “MMP-13CD IC50 (μM)”.
# [2] = target: MMP-14CD (catalytic domain of MMP-14) (Homo sapiens, UniProt P50281); assay: MMP-14 catalytic domain inhibition (Biological Methods 1, 2, or 5)
# Method: (§4) Thiopeptolide substrates show virtually no decomposition or hydrolysis at or below neutral pH in the absence of a matrix metalloproteinase enzyme. A typical thiopeptolide substrate commonly utilized for assays is Ac-Pro-Leu-Gly-thioester-Leu-Leu-Gly-OEt. A 100 μL assay mixture will contain a suitable amount of the MMP enzyme such as an amount described in Ye Qi-Zhuang, et al., 1996, supra, 50 mM of N-2-hydroxyethylpiperazine-N′-2-ethanesulfonic acid buffer (“HEPES,” pH 7.0), 10 mM CaCl2, 100 μM thiopeptolide substrate, and 1 mM 5,5′-dithio-bis-(2-nitro-benzoic acid) (DTNB). The thiopeptolide substrate concentration may be varied, for example from 10 to 800 μM to obtain Km and Kcat values. The change in absorbance at 405 nm is monitored on a Thermo Max microplate reader (molecular Devices, Menlo Park, Calif.) at room temperature (22° C.). The calculation of the amount of hydrolysis of the thiopeptolide substrate is based on E412=13600 M^−1 cm^−1 for the DTNB-derived product 3-carboxy-4-nitrothiophenoxide. Assays are carried out with and without matrix metalloproteinase inhibitor compounds, and the amount of hydrolysis is compared for a determination of inhibitory activity of the test compounds.
# (§5) Test compounds are evaluated at various concentrations in order to determine their respective IC50 values, the micromolar concentration of compound required to cause a 50% inhibition of catalytic activity of the respective enzyme.
# (§6) Test compounds can be evaluated according to Biological Method 1 at various concentrations in order to determine their respective IC50 values, typically the micromolar concentration of compound required to cause a 50% inhibition of the hydrolytic activity of the respective enzyme.
# (§7) Some representative compounds of Formula I have been evaluated according to Biological Method 1 for their ability to inhibit MMP-13 and other MMP enzymes, including MMP-1, MMP-2, MMP-3, MMP-7, MMP-8, MMP-9, MMP-12, MMP14, and MMP-17. Inhibitor activity versus other MMPs with the compounds may be determined using, for example, MMP-1FL, which refers to full length interstitial collagenase; MMP-2FL, which refers to full length Gelatinase A; MMP-3CD, which refers to the catalytic domain of stromelysin; MMP-7FL, which refers to full length matrilysin; MMP-9FL, which refers to full length Gelatinase B; MMP-13CD, which refers to the catalytic domain of collagenase 3; and MMP-14CD, which refers to the catalytic domain of MMP-14.
# (§8) The method of Biological Method 1, except thiopeptolide substrate is replaced with a fluorigenic peptide such as Fluorigenic peptide-1.
# as §3
# [3] = target: T2, MMP-7FL (full length matrilysin) (Homo sapiens, UniProt P09237); assay: MMP-7 full-length inhibition (Biological Methods 1, 2, or 5)
# T2 sequence (P09237 95-267): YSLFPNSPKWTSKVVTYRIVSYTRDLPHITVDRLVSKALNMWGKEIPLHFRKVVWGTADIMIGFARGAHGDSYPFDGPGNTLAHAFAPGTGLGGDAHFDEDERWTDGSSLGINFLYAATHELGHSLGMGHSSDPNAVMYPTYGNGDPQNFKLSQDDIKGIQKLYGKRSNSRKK
# Method: as §1, §2, §3
# MMP-17CD = target: T3, MMP-17CD (Homo sapiens, UniProt Q9ULZ9); assay: MMP-17 catalytic domain inhibition (Biological Methods 1, 2, or 5)
# T3 construct: MMP-17 catalytic domain (“MMP-17CD”)
# T3 sequence (Q9ULZ9 126-295 limits assumed): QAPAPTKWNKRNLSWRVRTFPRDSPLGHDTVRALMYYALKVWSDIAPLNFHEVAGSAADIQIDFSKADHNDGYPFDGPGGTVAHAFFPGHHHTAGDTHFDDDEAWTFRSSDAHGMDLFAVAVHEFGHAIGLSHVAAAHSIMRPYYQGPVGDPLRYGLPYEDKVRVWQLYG
# Method: as §4, §5, §6, §7, §8, §3
# [4] = target: MMP-3CD (catalytic domain of stromelysin) (Homo sapiens, UniProt P08254); assay: MMP-3 catalytic domain inhibition (Biological Methods 1, 2, or 5)
# MMP-3CD (catalytic domain of stromelysin), sequence (P08254 100-272 limits assumed): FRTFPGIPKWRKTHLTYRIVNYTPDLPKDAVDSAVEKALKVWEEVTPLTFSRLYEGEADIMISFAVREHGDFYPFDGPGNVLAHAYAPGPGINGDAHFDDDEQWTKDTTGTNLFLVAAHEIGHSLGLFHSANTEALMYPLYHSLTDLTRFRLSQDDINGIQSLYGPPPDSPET
# Method: as §4, §5
# It should be appreciated that the assay buffer used with MMP-3CD was 50 mM N-morpholinoethane sulfonate (“MES”) at pH 6.0 rather than the HEPES buffer at pH 7.0 described above.
# as §6, §7, §8, §3
# MMP-8FL = target: T4, MMP-8FL (Homo sapiens, UniProt P22894); assay: MMP-8 full-length inhibition (Biological Methods 1, 2, or 5)
# T4 construct: MMP-8 full-length
# T4 sequence (P22894 101-467): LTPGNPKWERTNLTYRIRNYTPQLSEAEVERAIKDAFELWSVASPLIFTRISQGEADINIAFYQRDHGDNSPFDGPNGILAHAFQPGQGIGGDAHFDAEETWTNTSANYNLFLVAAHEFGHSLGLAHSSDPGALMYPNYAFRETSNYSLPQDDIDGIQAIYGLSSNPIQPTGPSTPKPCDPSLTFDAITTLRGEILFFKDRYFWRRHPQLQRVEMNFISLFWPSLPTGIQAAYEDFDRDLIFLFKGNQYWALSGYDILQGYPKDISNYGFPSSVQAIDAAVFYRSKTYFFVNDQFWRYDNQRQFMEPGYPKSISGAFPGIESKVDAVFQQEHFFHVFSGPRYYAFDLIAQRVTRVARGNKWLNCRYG
# Method: as §4, §5, §6, §7, §8, §3
# [5] = target: T5, MMP-13 catalytic domain (MMP-13CD) (Homo sapiens, UniProt P45452); assay: MMP-13 catalytic domain inhibition (Biological Methods 1, 2, or 5)
# T5 construct: particularly MMP-13 catalytic domain (“MMP-13CD”)
# Method: as §4, §5, §6, §7, §8
# Fluorigenic peptide-1 substrate based assay for identifying compounds of Formula I as allosteric inhibitors of MMP-13:
# • 50 mM HEPES buffer (pH 7.0) • 10 mM CaCl2 • 10 μM fluorigenic peptide-1 (“FP1”) substrate • 0 or 15 mM acetohydroxamic acid (AcNHOH)=1 Kd • 2% DMSO (with or without inhibitor test compound) • 0.5 nM MMP-13CD enzyme Stock Solutions: • 1) 10× assay buffer: 500 mM HEPES buffer (pH 7.0) plus 100 mM CaCl2 • 2) 10 mM FP1 substrate: (Mca)-Pro-Leu-Gly-Leu-(Dnp)-Dpa-Ala-Arg-NH2 (Bachem, M-1895; “A novel coumarin-labeled peptide for sensitive continuous assays of the matrix metalloproteinases,” Knight C. G., Willenbrock F., and Murphy, G., FEBS Lett., 1992;296:263-266). Is prepared 10 mM stock by dissolving 5 mg FP1 in 0.457 mL DMSO. • 3) 3 M AcNHOH: Is prepared by adding 4 mL H2O and 1 mL 10× assay buffer to 2.25 g AcNHOH (Aldrich 15,903-4). Adjusting pH to 7.0 with NaOH. Diluting volume to 10 mL with H2O. Final solution will contain 3 M AcNHOH, 50 mM HEPES buffer (pH 7.0), and 10 mM CaCl2. • 4) AcNHOH dilution buffer: 50 mM HEPES buffer (pH 7.0) plus 10 mM CaCl2 • 5) MMP-13CD enzyme: Stock concentration=250 nM. • 6) Enzyme dilution buffer: 50 mM HEPES buffer (pH 7.0), 10 mM CaCl2, and 0.005% BRU 35 detergent (Calbiochem 203728; Protein Grade, 10%) Procedure (For One 96-well Microplate): • A. Prepared assay mixture: […]
# [6] = target: MMP-9FL (full length Gelatinase B) (Homo sapiens, UniProt P14780); assay: MMP-9 full-length inhibition (Biological Methods 1, 2, or 5)
# MMP-9FL (full length Gelatinase B), sequence (P14780 94-707): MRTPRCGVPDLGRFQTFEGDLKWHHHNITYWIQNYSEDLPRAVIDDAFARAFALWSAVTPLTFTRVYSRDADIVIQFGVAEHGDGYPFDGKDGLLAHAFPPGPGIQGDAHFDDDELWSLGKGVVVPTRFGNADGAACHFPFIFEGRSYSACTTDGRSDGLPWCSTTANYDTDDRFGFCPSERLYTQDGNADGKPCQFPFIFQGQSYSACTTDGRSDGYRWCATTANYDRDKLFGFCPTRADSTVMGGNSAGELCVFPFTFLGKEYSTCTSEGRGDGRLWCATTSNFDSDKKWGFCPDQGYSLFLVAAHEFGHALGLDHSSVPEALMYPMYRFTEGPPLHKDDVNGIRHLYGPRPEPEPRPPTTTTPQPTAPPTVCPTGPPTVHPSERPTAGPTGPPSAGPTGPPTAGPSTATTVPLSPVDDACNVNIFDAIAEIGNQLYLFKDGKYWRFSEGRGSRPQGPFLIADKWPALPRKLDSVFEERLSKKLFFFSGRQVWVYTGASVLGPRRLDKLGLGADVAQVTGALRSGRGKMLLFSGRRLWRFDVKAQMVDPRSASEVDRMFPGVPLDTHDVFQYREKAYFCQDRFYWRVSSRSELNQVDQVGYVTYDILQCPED
# Method: as §4, §5, §6, §7, §8, §3
# MMP-12CD = target: T6, MMP-12CD (Homo sapiens, UniProt P39900); assay: MMP-12 catalytic domain inhibition (Biological Methods 1, 2, or 5)
# T6 construct: MMP-12 catalytic domain (“MMP-12CD”)
# T6 sequence (P39900 106-263 limits assumed): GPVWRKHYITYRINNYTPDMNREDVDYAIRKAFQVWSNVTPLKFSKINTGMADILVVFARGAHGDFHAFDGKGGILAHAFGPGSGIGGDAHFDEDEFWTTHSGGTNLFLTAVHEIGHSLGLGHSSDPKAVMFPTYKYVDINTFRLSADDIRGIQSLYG
# Method: as §4, §5, §6, §7, §8, §3
Structure (SMILES),IC50 [1] [µM],IC50 [2] [µM],IC50 [3] [µM],IC50 (MMP-17CD) [µM],IC50 [4] [µM],IC50 (MMP-8FL) [µM],IC50 [5] [nM],IC50 [6] [µM],IC50 (MMP-12CD) [µM]
COc1cccc(CC(=O)Nc2cc3c(=O)n(Cc4ccc(C(=O)O)cc4)cnc3cc2F)c1 [A2],> 100,> 100,> 100,> 100,> 100,> 100,53,–,–
O=C(Cc1ccc(F)cc1)Nc1ccc2ncn(Cc3ccc(C(=O)O)cc3)c(=O)c2c1 [A4],> 100,> 30,> 100,> 100,> 100,> 100,36,> 100,–
O=C(Cc1cccc(F)c1)Nc1ccc2ncn(Cc3ccc(C(=O)O)cc3)c(=O)c2c1 [A5],> 100,> 30,> 100,> 100,> 100,> 100,250,> 100,–
COc1ccc(CC(=O)Nc2cc3c(=O)n(Cc4ccc(C(=O)O)cc4)cnc3cc2F)cc1 [A6],–,–,–,–,–,–,5.3,–,–
Cc1ccc(CC(=O)Nc2cc3c(=O)n(Cc4ccc(C(=O)O)cc4)cnc3cc2F)cc1 [A7],–,–,–,–,–,–,100,–,–
O=C(Cc1ccc(O)cc1)Nc1cc2c(=O)n(Cc3ccc(C(=O)O)cc3)cnc2cc1F [A8],–,–,–,–,–,–,21,–,–
"COc1cccc(CC(=O)Nc2ccc3ncn(Cc4ccc(C(=O)O)cc4)c(=O)c3c2)c1 [Compound Example A1, 4-{6-[2-(3-Methoxy-phenyl)-acetylamino]-4-oxo-4H-quinazolin-3-ylmethyl}-benzoic acid]",–,> 30,–,> 30,> 65,> 30,38,> 30,> 30
"COc1cccc(CC(=O)Nc2ccc3ccn(Cc4ccc(C(=O)O)cc4)c(=O)c3c2)c1 [Compound Example B1, 4-{7-[2-(3-Methoxy-phenyl)-acetylamino]-1-oxo-1H-isoquinolin-2-ylmethyl}-benzoic acid]",–,> 30,–,> 30,> 65,> 30,53,> 30,> 30

# The remaining lines, values ahead:
IC50 [1] [µM],IC50 [2] [µM],IC50 [3] [µM],IC50 (MMP-17CD) [µM],IC50 [4] [µM],IC50 (MMP-8FL) [µM],IC50 [5] [nM],IC50 [6] [µM],IC50 (MMP-12CD) [µM],Structure (SMILES)
–,> 30,–,> 30,> 65,> 30,13,> 30,> 30,COc1ccc(CC(=O)Nc2ccc3ccn(Cc4ccc(C(=O)O)cc4)c(=O)c3c2)cc1 [B2]
–,> 30,–,> 30,> 65,> 30,292,> 30,> 30,O=C(Cc1cccc(F)c1)Nc1ccc2ccn(Cc3ccc(C(=O)O)cc3)c(=O)c2c1 [B3]
–,> 30,–,> 30,> 65,> 30,48,> 30,> 30,O=C(Cc1ccc(F)cc1)Nc1ccc2ccn(Cc3ccc(C(=O)O)cc3)c(=O)c2c1 [B4]
